Where a name gives a salt, the structure may show the parent alone.

For orientation: IC50 means the concentration that gives 50% inhibition.

One assay addresses human complement factor B (CVF-Bb complex) (Homo sapiens (Human), UniProt P00751). Nature of the assay: Human Complement Factor B ELISA Assay. It counts as biochemical.
Settings: not given
Summed up:
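Preformed CVF-Bb complex (3 nM; cobra venom factor with recombinant human factors B and D) preincubated with compound 1 h, RT, in PBS pH 7.4, 10 mM MgCl2, 0.05% CHAPS. Plasma C3 added at 1 μM final for 1 h, then stopped; C3a product measured by ELISA, IC50 from % inhibition.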
For `COc1cc2c(N)nc(N3CCN(C(=O)C[C@@H]4CCN4)C[C@@H]3c3ccccc3)nc2c(F)c1OC` [Example 119, 1-[(S)-4-(4-Amino-8-fluoro-6,7-dimethoxy-quinazolin-2-yl)-3-phenyl-piperazin-1-yl]-2-(S)-azetidin-2-yl-ethanone hydrochloride], 0.61 µM corresponded to half-maximal inhibition (IC50). As to `COc1cc2c(N)nc(N3CCN(C(=O)C[C@@H](N)c4ccc(Cl)cc4)CC3)nc2c(F)c1OC` [Example 48, (R)-3-Amino-1-[4-(4-amino-8-fluoro-6,7-dimethoxy-quinazolin-2-yl)-piperazin-1-yl]-3-(4-chloro-phenyl)-propan-1-one hydrochloride], 0.09 µM corresponded to half-maximal inhibition (IC50).

`COc1cc2c(N)nc(N3CCN(C(=O)C[C@@H](N)c4ccc(C#N)cc4)C[C@@H]3C)nc2c(F)c1OC` [Example 58, 4-{(R)-1-Amino-3-[(S)-4-(4-amino-8-fluoro-6,7-dimethoxy-quinazolin-2-yl)-3-methyl-piperazin-1-yl]-3-oxo-propyl}-benzonitrile hydrochloride] showed an IC50 of 0.009 µM. `COc1cc2c(N)nc(N3CCN(C(=O)C[C@@H](N)c4ccc(F)c(Cl)c4)CC3)nc2c(F)c1OC` [Example 52, (R)-3-Amino-1-[4-(4-amino-8-fluoro-6,7-dimethoxy-quinazolin-2-yl)-piperazin-1-yl]-3-(3-chloro-4-fluoro-phenyl)-propan-1-one hydrochloride] registered an IC50 of 0.11 µM. Same read-out and setting: with `COc1cc2c(N)nc(N3CCN(C(=O)C[C@@H](N)c4ccc(C(F)(F)F)cc4)C[C@@H]3C)nc2c(F)c1OC` [Example 61, (R)-3-Amino-1-[(S)-4-(4-amino-8-fluoro-6,7-dimethoxy-quinazolin-2-yl)-3-methyl-piperazin-1-yl]-3-(4-trifluoromethyl-phenyl)-propan-1-one hydrochloride] the figure was 0.04 µM; with `COc1cc2c(N)nc(N3CCN(C(=O)C[C@@H](N)c4ccc(F)cc4)C[C@@H]3C)nc2c(F)c1OC` [Example 60, (R)-3-Amino-1-[(S)-4-(4-amino-8-fluoro-6,7-dimethoxy-quinazolin-2-yl)-3-methyl-piperazin-1-yl]-3-(4-fluoro-phenyl)-propan-1-one hydrochloride], 0.02 µM; with `COc1cc2c(N)nc(N3CCN(C(=O)C[C@@H](N)c4ccccc4F)C[C@@H]3C)nc2c(F)c1OC` [Example 59, (R)-3-Amino-1-[(S)-4-(4-amino-8-fluoro-6,7-dimethoxy-quinazolin-2-yl)-3-methyl-piperazin-1-yl]-3-(2-fluoro-phenyl)-propan-1-one hydrochloride], 0.16 µM.

Still in this assay, the particulars now being: CVF-Bb complex 3 nM, 1 hour preincubation with compound at room temperature, human C3 substrate 1 μM, C3a quantified by ELISA; read-out: Factor B IC50.
As for `COc1cc2c(N)nc(N3CCN(C(=O)C[C@@H](NC(C)C)c4ccc(F)cn4)CC3)nc2c(F)c1OC` [Example 101, (R)-1-[4-(4-Amino-8-fluoro-6,7-dimethoxy-quinazolin-2-yl)-piperazin-1-yl]-3-(5-fluoro-pyridin-2-yl)-3-isopropylamino-propan-1-one], the IC50 turned out to be 0.013 µM. On the same count and under the same terms, with `COc1cc2c(N)nc(N3CCN(C(=O)/C=C/C4CC4)CC3)nc2c(C#N)c1OC` [Example 5, 4-Amino-2-[4-((E)-3-cyclopropyl-acryloyl)-piperazin-1-yl]-6,7-dimethoxy-quinazoline-8-carbonitrile] the figure was 0.44 µM. Consider `COc1cc2c(N)nc(N3CCN(C(=O)C[C@@H](NC(C)C)c4ccc(F)c(C#N)c4)CC3)nc2c(F)c1OC` [Example 91, (R)-5-(3-(4-(4-amino-8-fluoro-6,7-dimethoxyquinazolin-2-yl)piperazin-1-yl)-1-(isopropylamino)-3-oxopropyl)-2-fluorobenzonitrile], for which the half-maximal inhibitory concentration (IC50) was found to be 0.012 µM. Same read-out and setting: with `COc1cc2c(N)nc(N3CCN(C(=O)C[C@@H](N)c4cccc(Cl)c4)CC3)nc2c(F)c1OC` [Example 47, (R)-3-Amino-1-[4-(4-amino-8-fluoro-6,7-dimethoxy-quinazolin-2-yl)-piperazin-1-yl]-3-(3-chloro-phenyl)-propan-1-one] the figure was 0.11 µM; with `CC[C@H]1CN(C(=O)C[C@@H]2CCCN2)CCN1c1nc(N)c2cc(OC)c(OC)c(F)c2n1` [Example 116, 1-[(S)-4-(4-Amino-8-fluoro-6,7-dimethoxy-quinazolin-2-yl)-3-ethyl-piperazin-1-yl]-2-(S)-pyrrolidin-2-yl-ethanone], 0.54 µM; with `CC[C@H]1CN(C(=O)[C@@H]2CCc3ccccc3[C@@H]2N)CCN1c1nc(N)c2cc(OC)c(OC)c(F)c2n1` [Example 106, [(S)-4-(4-Amino-8-fluoro-6,7-dimethoxy-quinazolin-2-yl)-3-ethyl-piperazin-1-yl]-((1R,2R)-1-amino-1,2,3,4-tetrahydro-naphthalen-2-yl)-methanone], 2.66 µM. Still for that read-out and setting: with `COc1cc2c(N)nc(N3CCN(C(=O)/C=C/C4CC4)CC3)nc2c(Cl)c1OC` [Example 13, (E)-1-(4-(4-Amino-8-chloro-6,7-dimethoxyquinazolin-2-yl)piperazin-1-yl)-3-cyclopropylprop-2-en-1-one] the figure was 1.05 µM; with `COc1cc2c(N)nc(N3CCN(C(=O)C[C@@H](N)CC(C)C)CC3)nc2c(F)c1OC` [Example 33, (S)-3-Amino-1-[4-(4-amino-8-fluoro-6,7-dimethoxy-quinazolin-2-yl)-piperazin-1-yl]-5-methyl-hexan-1-one], 0.68 µM.

In the case of `COCCOc1c(OC)cc2c(N)nc(N3CCN(C(=O)C[C@@H](N)c4ccc(C#N)cc4)C[C@@H]3C)nc2c1F` [Example 71], the IC50 was found to be 0.07 µM.

As for `COc1cc2c(N)nc(N3CCN(C(=O)c4cc5cc(F)ccc5[nH]4)CC3)nc2c(F)c1OC` [Example 21, [4-(4-Amino-8-fluoro-6,7-dimethoxy-quinazolin-2-yl)-piperazin-1-yl]-(5-fluoro-1H-indol-2-yl)-methanone], the IC50 was found to be 0.07 µM. On the same count and under the same terms, for `COc1cc2c(N)nc(N3CCN(C(=O)C[C@H](c4ccc(F)cc4)N4CCCC4)CC3)nc2c(F)c1OC` [Example 103] the value was 0.015 µM.

As for `COc1cc2nc(N3CCN(C(=O)/C=C/C4CC4)CC3)nc(N)c2c(Cl)c1OC` [Example 14, (E)-1-(4-(4-Amino-5-chloro-6,7-dimethoxyquinazolin-2-yl)piperazin-1-yl)-3-cyclopropylprop-2-en-1-one], the IC50 turned out to be 3.29 µM. The same measure, in the same setting: for `COCCOc1c(OC)cc2c(N)nc(N3CCN(C(=O)/C=C/c4ccc(C#N)cc4)CC3)nc2c1F` [Example 11, 4-((E)-3-{4-[4-Amino-8-fluoro-6-methoxy-7-(2-methoxy-ethoxy)-quinazolin-2-yl]-piperazin-1-yl}-3-oxo-propenyl)-benzonitrile] the value was 0.23 µM; for `COc1cc2c(N)nc(N3CCN(C(=O)C[C@H]4NCCc5ccccc54)CC3)nc2c(F)c1OC` [Example 127, 1-[4-(4-Amino-8-fluoro-6,7-dimethoxy-quinazolin-2-yl)-piperazin-1-yl]-2-(R)-1,2,3,4-tetrahydro-isoquinolin-1-yl-ethanone], 0.2 µM; for `COc1cc2c(N)nc(N3CCN(C(=O)C[C@@H](N)c4cccc(C(F)(F)F)c4)CC3)nc2c(F)c1OC` [Example 54, (R)-3-Amino-1-[4-(4-amino-8-fluoro-6,7-dimethoxy-quinazolin-2-yl)-piperazin-1-yl]-3-(3-trifluoromethyl-phenyl)-propan-1-one], 0.26 µM. For `[2H]C([2H])([2H])N[C@H](CC(=O)N1CCN(c2nc(N)c3cc(OC)c(OC)c(F)c3n2)CC1)c1ccccc1` [Example 79, (R)-1-[4-(4-Amino-8-fluoro-6,7-dimethoxy-quinazolin-2-yl)-piperazin-1-yl]-3-d^3-methylamino-3-phenyl-propan-1-one hydrochloride], the IC50 worked out at 0.05 µM. Still for that read-out and setting: for `COc1cc2c(N)nc(N3CCN(C(=O)C[C@H](c4ccc(F)cc4)N(C)C)CC3)nc2c(F)c1OC` [Example 86] the value was 0.04 µM. The same measure, in the same setting: for `CCN[C@H](CC(=O)N1CCN(c2nc(N)c3cc(OC)c(OC)c(F)c3n2)CC1)c1ccc(C#N)cc1` [Example 90, (R)-4-(3-(4-(4-amino-8-fluoro-6,7-dimethoxyquinazolin-2-yl)piperazin-1-yl)-1-(ethylamino)-3-oxopropyl)benzonitrile] the value was 0.001 µM.

For the compound `COc1cc2c(N)nc(N3CCN(C(=O)C[C@@H]4CCCCN4)C[C@@H]3c3ccccc3)nc2c(F)c1OC` [Example 121, 1-[(S)-4-(4-Amino-8-fluoro-6,7-dimethoxy-quinazolin-2-yl)-3-phenyl-piperazin-1-yl]-2-(S)-piperidin-2-yl-ethanone], the IC50 was found to be 0.02 µM. As for `COc1cc2c(N)nc(N3CCN(C(=O)/C=C/C4CC4)CC3)nc2c(Br)c1OC` [Example 15, (E)-1-(4-(4-Amino-8-bromo-6,7-dimethoxyquinazolin-2-yl)piperazin-1-yl)-3-cyclopropylprop-2-en-1-one], the IC50 was determined as 1.28 µM. Same read-out and setting: with `COc1cc2c(N)nc(N3CCN(C(=O)C[C@@H](N)c4cccc(F)c4)CC3)nc2c(F)c1OC` [Example 45, (R)-3-Amino-1-[4-(4-amino-8-fluoro-6,7-dimethoxy-quinazolin-2-yl)-piperazin-1-yl]-3-(3-fluoro-phenyl)-propan-1-one] the figure was 0.05 µM; with `[2H]C([2H])([2H])N[C@H](CC(=O)N1CCN(c2nc(N)c3cc(OC)c(OC)c(F)c3n2)CC1)c1ccc(F)cc1` [Example 80, (R)-1-(4-(4-Amino-8-fluoro-6,7-dimethoxyquinazolin-2-yl)piperazin-1-yl)-3-(4-fluorophenyl)-3-(d^3-methylamino)propan-1-one hydrochloride], 0.006 µM. The same measure, in the same setting: with `COc1cc2c(N)nc(N3CCN(C(=O)/C=C/C4CC4)CC3)nc2c(F)c1OC` [Example 1, (E)-1-[4-(4-Amino-8-fluoro-6,7-dimethoxy-quinazolin-2-yl)-piperazin-1-yl]-3-cyclopropyl-propenone hydrochloride] the figure was 0.5 µM.
